The source made the active and inactive calls.
Assays:
[1] = target: T1, Methionyl-tRNA synthetase, putative (Trypanosoma brucei brucei, UniProt Q38C91); type: functional, Trypanosoma brucei brucei strain 927/4 GUTat10.1
[2] = Counterscreen for inhibitors of Trypanosoma brucei methionyl tRNA synthetase (MetRS): Luminescence-based cell-based high throughput dose response assay to identify compounds that are cytotoxic to Jurkat human T lymphocyte cells.; type: functional
[3] = target: T1, Methionyl-tRNA synthetase, putative; type: functional, Trypanosoma brucei brucei strain 927/4 GUTat10.1; remark: listed apart in the source
[4] = Late stage counterscreen for inhibitors of Trypanosoma brucei methionyl tRNA synthetase (MetRS): Luminescence-based cell-based high throughput dose response assay to identify compounds that are cytotoxic to Jurkat human T lymphocyte cells.; type: functional
[5] = target: fMet-Leu-Phe receptor (Homo sapiens, UniProt P21462); experiment: formyl peptide receptor binders – dose response (AID 519); type: functional
[6] = cells; conditions: HEK293
[7] = viability loss in HepG2 hepatoma cells – cell-based, cherry-picks, set 5, cytotoxicity control, dose response (AID 1053118); type: functional
[8] = viability loss in HEK293 kidney cells – cell-based, cherry-picks, set 5, cytotoxicity control, dose response (AID 1053117); type: functional
[9] = viability loss in A549 lung cancer cells – cell-based, cherry-picks, […], cytotoxicity control, dose response (AID 1053119); type: functional
[10] = blockers of FN fibrillogenesis by fibroblasts – AH1F cells, Alexa488-FN fluorescence, cherry-picks, dose response (AID 1035475); type: functional, cell-based
[11] = P. falciparum Dd2 growth inhibitors, dose response, SYBR Green, cherry-picked samples (AID 1159567); type: functional, cell-based
[12] = toxicity to human hepatoma HepG2 cells – cell-based, cherry-picked samples, cytotoxicity control, dose response (AID 1159577); type: functional
[13] = target: T2, Replicative DNA helicase DnaB (Mycobacterium tuberculosis, UniProt P9WMR3); experiment: DnaB intein splicing inhibitors, dose response, biochemical, cell-free fluorescence (AID 449749); type: functional
T2 sequence (P9WMR3 whole entry): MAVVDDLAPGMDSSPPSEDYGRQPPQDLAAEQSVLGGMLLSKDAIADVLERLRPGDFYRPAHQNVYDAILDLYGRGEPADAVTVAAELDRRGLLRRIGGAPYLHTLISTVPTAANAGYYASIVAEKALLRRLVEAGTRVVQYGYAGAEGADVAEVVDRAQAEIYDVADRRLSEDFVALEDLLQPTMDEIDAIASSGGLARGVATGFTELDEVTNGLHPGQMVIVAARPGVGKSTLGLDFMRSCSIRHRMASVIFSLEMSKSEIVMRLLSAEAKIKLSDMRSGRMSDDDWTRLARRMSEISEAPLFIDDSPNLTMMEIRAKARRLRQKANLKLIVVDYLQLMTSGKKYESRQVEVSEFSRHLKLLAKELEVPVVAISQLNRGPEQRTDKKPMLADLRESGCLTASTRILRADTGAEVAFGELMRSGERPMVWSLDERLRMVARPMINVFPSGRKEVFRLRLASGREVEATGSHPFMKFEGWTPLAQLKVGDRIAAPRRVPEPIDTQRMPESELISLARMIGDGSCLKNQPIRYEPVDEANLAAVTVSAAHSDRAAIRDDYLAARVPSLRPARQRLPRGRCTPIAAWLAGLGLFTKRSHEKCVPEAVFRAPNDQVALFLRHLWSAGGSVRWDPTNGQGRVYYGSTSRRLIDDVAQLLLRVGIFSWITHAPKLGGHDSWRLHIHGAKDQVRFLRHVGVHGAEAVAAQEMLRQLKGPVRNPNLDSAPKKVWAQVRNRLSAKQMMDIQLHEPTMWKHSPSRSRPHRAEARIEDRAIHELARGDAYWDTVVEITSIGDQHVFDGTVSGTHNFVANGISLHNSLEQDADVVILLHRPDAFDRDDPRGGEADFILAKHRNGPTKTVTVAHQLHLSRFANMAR

[14] = target: T3, Protein RecA (Mycobacterium tuberculosis, UniProt P9WHJ3); experiment: Fluorescence Cell-Free Homogeneous Dose Retest to Identify Inhibitors of RecA-Intein Splicing Activity. [Related pubchem assays (depositor defined):AID2097, AID2223, AID489010, AID492950]; type: functional
T3 sequence (P9WHJ3 whole entry): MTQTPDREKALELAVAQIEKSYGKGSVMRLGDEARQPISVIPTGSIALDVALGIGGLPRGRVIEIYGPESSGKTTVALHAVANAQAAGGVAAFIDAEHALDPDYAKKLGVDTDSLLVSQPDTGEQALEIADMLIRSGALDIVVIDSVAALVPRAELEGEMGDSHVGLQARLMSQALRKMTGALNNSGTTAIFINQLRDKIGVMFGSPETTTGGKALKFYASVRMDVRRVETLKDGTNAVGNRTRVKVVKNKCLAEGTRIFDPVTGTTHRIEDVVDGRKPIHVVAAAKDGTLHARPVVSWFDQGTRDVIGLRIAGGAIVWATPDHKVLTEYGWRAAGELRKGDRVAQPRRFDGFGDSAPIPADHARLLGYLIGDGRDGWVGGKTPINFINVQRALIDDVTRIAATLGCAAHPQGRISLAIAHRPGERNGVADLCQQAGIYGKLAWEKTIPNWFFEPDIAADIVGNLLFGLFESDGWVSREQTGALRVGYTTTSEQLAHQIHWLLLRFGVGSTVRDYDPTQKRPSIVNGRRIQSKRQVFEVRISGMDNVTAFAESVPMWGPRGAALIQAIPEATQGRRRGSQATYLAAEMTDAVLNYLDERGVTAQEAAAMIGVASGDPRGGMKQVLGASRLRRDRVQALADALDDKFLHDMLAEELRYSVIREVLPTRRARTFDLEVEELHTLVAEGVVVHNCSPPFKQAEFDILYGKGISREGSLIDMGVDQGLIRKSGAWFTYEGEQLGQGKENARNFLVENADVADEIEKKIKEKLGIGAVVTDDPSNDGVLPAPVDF

[15] = tested on: INS1; experiment: INS-1E survival protection against cytokine death – cell-based, luminescence, retest, dose response (AID 449756); type: functional; conditions: Rattus norvegicus;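 note: cell death triggered by IL-1 beta plus TNF-alpha plus IFN-gamma mixture; protective hits raise ATP signal compared with cytokine alone wells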
[16] = reduction of Shn3 3'UTR-driven luciferase in osteoblasts – cell-based, Clone20 osteoblasts, firefly luciferase, cherry-picked, dose response (AID 624132); type: functional;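 note: firefly luciferase luminescence from reporter carrying the Shn3 3'UTR in osteoblasts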
[17] = loss of viability in HepG2 cells – cell-based, CellTiter-Glo, cherry-picked, cytotoxicity control for Shn3 inhibitor project, dose response (AID 624134); type: functional
[18] = non-specific 3'UTR reporter inhibition in Clone20-Shn3RL – cell-based, Renilla luciferase, cherry-picked, counter-screen for Shn3 inhibitor project, dose response (AID 624133); type: functional
[19] = target: COUP transcription factor 2 (Homo sapiens, UniProt P24468); experiment: Luminescence-based cell-based high throughput dose response assay to identify inhibitors of COUP-TFII (NR2F2).; type: functional;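 note: HEK293 cells transiently cotransfected with COUP-TFII expression vector and reporter; luciferase reporter luminescence driven by COUP-TFII from the pX2-168 reporter plasmid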
[20] = tested on: Streptococcus sp. 'group A'; experiment: Streptococcus pyogenes SK(-)GAS viability under kanamycin – luminescence, BacTiterGlo, confirmation, counter-screen for streptokinase expression inhibitor project, dose response (AID 1900); type: functional, organism-based
[21] = target: T4, Streptokinase A (Streptococcus pyogenes serotype M1, UniProt P10520); experiment: viability-normalized secreted streptokinase activity reduction – plasminogen activation absorbance, OD405, dose response (AID 1914); type: functional, Streptococcus pyogenes M1 GAS;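 note: secreted streptokinase activity via plasminogen activation per viability signal from cell pellet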
T4 sequence (P10520 whole entry): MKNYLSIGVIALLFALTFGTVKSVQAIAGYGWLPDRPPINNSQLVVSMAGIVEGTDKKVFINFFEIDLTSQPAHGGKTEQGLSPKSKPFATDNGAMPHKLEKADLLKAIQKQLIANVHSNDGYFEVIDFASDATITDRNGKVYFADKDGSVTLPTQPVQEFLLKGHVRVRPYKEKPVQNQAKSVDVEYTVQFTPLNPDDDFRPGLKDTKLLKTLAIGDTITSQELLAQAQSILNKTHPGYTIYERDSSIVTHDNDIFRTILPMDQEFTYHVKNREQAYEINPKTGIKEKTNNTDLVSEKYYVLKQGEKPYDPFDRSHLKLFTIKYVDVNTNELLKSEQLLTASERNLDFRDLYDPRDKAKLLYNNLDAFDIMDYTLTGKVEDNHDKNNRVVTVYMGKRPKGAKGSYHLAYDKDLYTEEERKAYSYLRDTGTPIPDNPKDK

[22] = tested on: Streptococcus; experiment: GAS UMAA2166 growth inhibition – luminescence, BacTiterGlo, counter-screen for streptokinase expression inhibitor project, dose response (AID 1915); type: functional, organism-based;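 note: potency for reduction of bacterial viability or growth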
[23] = potency of ADAM10 substrate cleavage blockers – biochemical, QFRET, dose response (AID 743254);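 note: ADAM10 enzyme with the DM2 quenched FRET peptide as substrate; EDANS fluorescence gain as the protease cuts the substrate; inhibitor potency against ADAM10 proteolytic activity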
[24] = target: Disintegrin and metalloproteinase domain-containing protein 17 (Homo sapiens, UniProt P78536); experiment: inhibition of ADAM17 substrate cleavage – biochemical, quenched FRET substrate, counter-screen for ADAM10 exosite inhibitor project, dose response (AID 743253)
Chain of Disintegrin and metalloproteinase domain-containing protein 17 (P78536 whole entry, the tested form may be a part): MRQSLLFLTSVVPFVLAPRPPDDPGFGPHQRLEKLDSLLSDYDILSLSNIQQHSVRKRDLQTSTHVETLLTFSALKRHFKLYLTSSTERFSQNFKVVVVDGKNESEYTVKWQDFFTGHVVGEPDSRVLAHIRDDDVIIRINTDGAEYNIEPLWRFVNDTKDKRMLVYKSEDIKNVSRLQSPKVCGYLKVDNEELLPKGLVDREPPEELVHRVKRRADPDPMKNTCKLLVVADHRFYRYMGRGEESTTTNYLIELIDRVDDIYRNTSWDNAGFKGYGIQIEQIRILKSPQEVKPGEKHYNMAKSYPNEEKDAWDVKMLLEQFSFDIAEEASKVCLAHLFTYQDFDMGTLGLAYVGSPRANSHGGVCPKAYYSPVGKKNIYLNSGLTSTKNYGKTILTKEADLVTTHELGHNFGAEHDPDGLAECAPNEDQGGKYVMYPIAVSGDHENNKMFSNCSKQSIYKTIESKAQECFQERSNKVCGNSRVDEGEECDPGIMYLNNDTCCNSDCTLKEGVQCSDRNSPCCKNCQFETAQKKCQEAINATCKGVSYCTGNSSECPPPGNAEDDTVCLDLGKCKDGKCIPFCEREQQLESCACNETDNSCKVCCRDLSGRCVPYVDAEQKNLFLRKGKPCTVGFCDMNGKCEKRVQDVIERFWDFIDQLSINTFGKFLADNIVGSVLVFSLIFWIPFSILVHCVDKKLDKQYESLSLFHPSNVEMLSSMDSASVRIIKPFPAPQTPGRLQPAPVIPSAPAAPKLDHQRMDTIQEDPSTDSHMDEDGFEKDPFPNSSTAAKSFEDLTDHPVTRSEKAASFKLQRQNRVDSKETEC

T1 sequence (Q38C91 whole entry): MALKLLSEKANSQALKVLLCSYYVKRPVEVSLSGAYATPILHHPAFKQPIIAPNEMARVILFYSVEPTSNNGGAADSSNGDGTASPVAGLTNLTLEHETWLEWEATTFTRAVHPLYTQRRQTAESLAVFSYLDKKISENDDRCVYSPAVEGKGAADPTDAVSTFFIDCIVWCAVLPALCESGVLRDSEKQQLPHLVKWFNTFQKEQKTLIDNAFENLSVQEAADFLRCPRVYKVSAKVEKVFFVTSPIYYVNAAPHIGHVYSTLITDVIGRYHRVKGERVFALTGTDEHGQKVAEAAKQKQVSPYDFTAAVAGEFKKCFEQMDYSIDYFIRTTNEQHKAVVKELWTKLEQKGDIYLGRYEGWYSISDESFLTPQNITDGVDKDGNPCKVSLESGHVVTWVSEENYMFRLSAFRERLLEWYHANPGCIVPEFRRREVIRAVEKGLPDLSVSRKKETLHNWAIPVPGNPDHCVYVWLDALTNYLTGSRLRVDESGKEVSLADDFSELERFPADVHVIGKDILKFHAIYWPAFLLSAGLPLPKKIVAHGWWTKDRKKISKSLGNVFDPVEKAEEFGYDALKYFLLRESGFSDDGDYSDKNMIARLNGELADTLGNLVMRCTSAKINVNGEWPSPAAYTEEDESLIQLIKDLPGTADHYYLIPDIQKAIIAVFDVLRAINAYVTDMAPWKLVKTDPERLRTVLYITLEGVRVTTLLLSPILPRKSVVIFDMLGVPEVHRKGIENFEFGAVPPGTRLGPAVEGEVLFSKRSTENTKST
Chain of COUP transcription factor 2 (P24468 whole entry): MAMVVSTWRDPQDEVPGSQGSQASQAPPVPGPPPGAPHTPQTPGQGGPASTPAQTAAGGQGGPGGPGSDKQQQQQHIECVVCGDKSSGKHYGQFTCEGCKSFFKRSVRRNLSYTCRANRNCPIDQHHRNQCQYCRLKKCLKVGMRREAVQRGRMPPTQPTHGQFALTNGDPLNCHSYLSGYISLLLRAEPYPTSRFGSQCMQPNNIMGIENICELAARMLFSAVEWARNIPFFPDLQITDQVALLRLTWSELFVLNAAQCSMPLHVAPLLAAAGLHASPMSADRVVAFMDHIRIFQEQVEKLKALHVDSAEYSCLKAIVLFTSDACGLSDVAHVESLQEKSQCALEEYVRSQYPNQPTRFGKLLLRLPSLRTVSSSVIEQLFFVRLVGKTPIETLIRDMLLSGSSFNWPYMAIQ
Chain of fMet-Leu-Phe receptor (P21462 whole entry): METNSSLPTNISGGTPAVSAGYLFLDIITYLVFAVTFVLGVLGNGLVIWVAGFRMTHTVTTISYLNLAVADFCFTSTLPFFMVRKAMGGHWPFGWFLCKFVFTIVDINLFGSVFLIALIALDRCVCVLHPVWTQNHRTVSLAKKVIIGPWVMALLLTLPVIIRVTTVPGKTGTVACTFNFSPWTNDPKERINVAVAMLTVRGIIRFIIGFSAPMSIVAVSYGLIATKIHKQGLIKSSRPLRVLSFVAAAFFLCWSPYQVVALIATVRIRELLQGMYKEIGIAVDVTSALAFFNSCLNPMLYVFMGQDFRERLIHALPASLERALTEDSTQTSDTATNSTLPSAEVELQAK

Compound: O=C(Cn1cc(C(=O)C(=O)N2CCOCC2)c2ccccc21)Nc1cccc(C(F)(F)F)c1
- IC50 [1]: 0.352 µM (active)
- IC50 [2]: 77.5 µM (inactive)
- IC50 [3]: 0.205 µM (active)
- IC50 [4]: > 83.3 µM (inactive)

Compound: COc1ccc(-c2cn3cccnc3n2)cc1NC(=O)C1CCCC1
- Ki [5]: > 66.7 µM (inactive)

Compound: COc1ccc(CCNC(=O)CSc2cn(Cc3cccc(C)c3)c3ccccc23)cc1OC
- AC50 [6]: > 52 µM (inactive)

Compound: CO[C@H]1CN(C)C(=O)c2ccc(NC(=O)c3ccc(-c4ccccc4)cc3)cc2OC[C@@H](C)NC[C@@H]1C
- AC50 [7]: 10.9 µM (active)
- AC50 [8]: 16.3 µM (active)
- AC50 [9]: 13.4 µM (active)
- AC50 [10]: > 70 µM (inactive)
- AC50 [11]: 2.02 µM (active)
- AC50 [12]: 7.74 µM (active)

Compound: Cc1cccc(Nc2nc(NCc3ccco3)c3ccccc3n2)c1
- AC50 [13]: 5.65 µM (active)
- EC50 [14]: 9.37 µM (active)
- AC50 [15]: 2.09 µM (active)
- AC50 [16]: 2.05 µM (active)
- AC50 [17]: 13.1 µM (active)
- AC50 [18]: 3.22 µM (active)
- IC50 [19]: 8.5 µM (active)

Compound: O=C(OCc1ccc(-c2ccccc2)cc1)c1cccc(O)c1
- EC50 [20]: 11.4 µM (active)
- EC50 [21]: 22.4 µM (active)
- EC50 [22]: 19 µM (active)
- IC50 [23]: > 7.72 µM (active)
- IC50 [24]: > 69.5 µM (inactive)
